Earlier results in US20150209317A1, “Plant Extracts for Improving Cognitive Function” (Kemin Industries, Inc., priority 2014, published 2015).

Legend:
[1] = subchronic administration (Park 2010)
[2] = test system: aging mice; conditions: RA administration to aging mice

Catalase (CAT) activity in the brain [2]: increased
Superoxide dismutase (SOD) activity in the brain [2]: increased
Structure (SMILES): O=C(/C=C/c1ccc(O)c(O)c1)O[C@H](Cc1ccc(O)c(O)c1)C(=O)O [Rosmarinic acid]
Memory in the Morris water maze spatial task [1]: improved memory
Malondialdehyde (MDA) in the brain [2]: decreasing
